Data on one compound can be found in PMC11767077, “Experimental Validation of Antiobesogenic and Osteoprotective Efficacy of Ginsenoside CK via Targeting Lipid and Atherosclerosis Pathways” (Life, 2024).

≈ marks a conversion by molar mass, not a printed value.

The assay has as its target α-glucosidase. Briefly: p-NPG colorimetric enzyme assay, […] nm, commercial α-glucosidase. In kind it is biochemical.

For `CC(C)=CCC[C@](C)(O[C@@H]1O[C@H](CO)[C@@H](O)[C@H](O)[C@H]1O)[C@H]1CC[C@]2(C)[C@@H]1[C@H](O)C[C@@H]1[C@@]3(C)CC[C@H](O)C(C)(C)[C@@H]3CC[C@]12C` [CK, ginsenoside CK], the concentration for half-maximal inhibition (IC50) amounted to 22.83 µg/mL (≈ 36.7 µM).
